Laboratory results from patent publication US10550091B2, “1,4,5-substituted 1,2,3-triazole analogues as antagonists of the pregnane X receptor” (ST. JUDE CHILDREN'S RESEARCH HOSPITAL, priority 2016, dated 2020).
pEC50, pIC50: −log10 of the molar value. Like-named read-outs stand apart in the source and are kept apart here. Each block holds one compound with its values, some of them ahead of it.

Assays:
[1] = target: human peroxisome proliferator-activated receptor gamma (PPARγ) (Homo sapiens, UniProt P37231); test: human peroxisome proliferator-activated receptor gamma (PPARγ) transactivation assay; type: cell-based
hPXR [2] = target: T1, hPXR (Homo sapiens (Human), UniProt O75469); test: hPXR transactivation assays (agonistic and antagonistic), HepG2 cells with CYP3A4-luciferase reporter; details: 24 h, NA = not active; for pIC50: read-out: IC50 (antag), antagonistic assay, combined with 5 μM rifampicin; for pEC50: read-out: EC50 (agon), agonistic assay, compound alone
HepG2 cells = test: HepG2 cytotoxicity assay (CellTiter Glo); type: cell-based; details: Homo sapiens, HepG2, 72 h, read-out: IC50 (cyto)
hPXR [3] = target: T1, hPXR
[4] = target: human Liver X receptor beta (hLXRβ) (Homo sapiens, UniProt P55055); test: human Liver X receptor beta (hLXRβ) transactivation assay; type: cell-based; details: Anta = compound exhibited antagonism; read-out: LXRβ (Anta)
[5] = target: human vitamin D receptor (hVDR) (Homo sapiens, UniProt P11473); test: human vitamin D receptor (hVDR) transactivation assay; type: cell-based
[6] = target: human retinoid X receptor alpha (hRXRα) (Homo sapiens, UniProt P19793); test: human retinoid X receptor alpha (hRXRα) transactivation assay; type: cell-based; details: Anta = compound exhibited antagonism; read-out: RXRα (Anta)
[7] = target: human Liver X receptor alpha (hLXRα) (Homo sapiens, UniProt Q13133); test: human Liver X receptor alpha (hLXRα) transactivation assay; type: cell-based; details: Anta = compound exhibited antagonism; read-out: LXRα (Anta)
[8] = target: human retinoid X receptor beta (hRXRβ) (Homo sapiens, UniProt P28702); test: human retinoid X receptor beta (hRXRβ) transactivation assay; type: cell-based; details: for pIC50: Anta = compound exhibited antagonism, read-out: RXRβ (Anta)
[9] = target: human glucocorticoid receptor (hGR) (Homo sapiens, UniProt P04150); test: human glucocorticoid receptor (hGR) transactivation assay; type: cell-based; details: Anta = compound exhibited antagonism; read-out: GR (Anta)
[10] = target: human Farnesoid X receptor (hFXR) (Homo sapiens, UniProt Q96RI1); test: human Farnesoid X receptor (hFXR) transactivation assay; type: cell-based; details: Anta = compound exhibited antagonism; read-out: FXR (Anta)
[11] = Anta = compound exhibited antagonism, read-out: PPARγ (Anta)

Sequence of human retinoid X receptor alpha (hRXRα) (P19793 whole entry, looked up): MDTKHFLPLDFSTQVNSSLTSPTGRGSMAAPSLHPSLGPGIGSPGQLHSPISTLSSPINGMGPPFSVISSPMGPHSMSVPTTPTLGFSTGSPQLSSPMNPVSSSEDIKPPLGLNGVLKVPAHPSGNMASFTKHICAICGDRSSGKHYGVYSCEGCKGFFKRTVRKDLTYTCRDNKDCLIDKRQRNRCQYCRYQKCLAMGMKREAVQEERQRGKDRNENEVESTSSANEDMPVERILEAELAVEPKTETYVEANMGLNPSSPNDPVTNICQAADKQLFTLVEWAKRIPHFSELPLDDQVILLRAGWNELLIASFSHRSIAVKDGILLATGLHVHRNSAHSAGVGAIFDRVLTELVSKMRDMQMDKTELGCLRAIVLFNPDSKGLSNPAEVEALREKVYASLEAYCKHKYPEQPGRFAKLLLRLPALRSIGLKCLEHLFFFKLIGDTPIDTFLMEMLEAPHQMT
Sequence of human peroxisome proliferator-activated receptor gamma (PPARγ) (P37231 whole entry, looked up): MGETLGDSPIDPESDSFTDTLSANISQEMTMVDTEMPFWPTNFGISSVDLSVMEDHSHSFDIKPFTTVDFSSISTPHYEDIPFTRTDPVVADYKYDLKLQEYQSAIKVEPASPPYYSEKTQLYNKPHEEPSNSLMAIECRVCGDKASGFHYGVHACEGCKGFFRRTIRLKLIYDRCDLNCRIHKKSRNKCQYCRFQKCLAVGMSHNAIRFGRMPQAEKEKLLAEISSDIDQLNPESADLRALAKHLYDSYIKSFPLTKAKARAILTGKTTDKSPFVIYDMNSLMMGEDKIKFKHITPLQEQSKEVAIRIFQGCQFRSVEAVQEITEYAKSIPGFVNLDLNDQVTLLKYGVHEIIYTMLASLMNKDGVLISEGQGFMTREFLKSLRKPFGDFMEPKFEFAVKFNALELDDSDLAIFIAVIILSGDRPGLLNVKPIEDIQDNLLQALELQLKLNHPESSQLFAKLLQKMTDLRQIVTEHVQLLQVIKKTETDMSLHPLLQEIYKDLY
Sequence of human glucocorticoid receptor (hGR) (P04150 whole entry, looked up): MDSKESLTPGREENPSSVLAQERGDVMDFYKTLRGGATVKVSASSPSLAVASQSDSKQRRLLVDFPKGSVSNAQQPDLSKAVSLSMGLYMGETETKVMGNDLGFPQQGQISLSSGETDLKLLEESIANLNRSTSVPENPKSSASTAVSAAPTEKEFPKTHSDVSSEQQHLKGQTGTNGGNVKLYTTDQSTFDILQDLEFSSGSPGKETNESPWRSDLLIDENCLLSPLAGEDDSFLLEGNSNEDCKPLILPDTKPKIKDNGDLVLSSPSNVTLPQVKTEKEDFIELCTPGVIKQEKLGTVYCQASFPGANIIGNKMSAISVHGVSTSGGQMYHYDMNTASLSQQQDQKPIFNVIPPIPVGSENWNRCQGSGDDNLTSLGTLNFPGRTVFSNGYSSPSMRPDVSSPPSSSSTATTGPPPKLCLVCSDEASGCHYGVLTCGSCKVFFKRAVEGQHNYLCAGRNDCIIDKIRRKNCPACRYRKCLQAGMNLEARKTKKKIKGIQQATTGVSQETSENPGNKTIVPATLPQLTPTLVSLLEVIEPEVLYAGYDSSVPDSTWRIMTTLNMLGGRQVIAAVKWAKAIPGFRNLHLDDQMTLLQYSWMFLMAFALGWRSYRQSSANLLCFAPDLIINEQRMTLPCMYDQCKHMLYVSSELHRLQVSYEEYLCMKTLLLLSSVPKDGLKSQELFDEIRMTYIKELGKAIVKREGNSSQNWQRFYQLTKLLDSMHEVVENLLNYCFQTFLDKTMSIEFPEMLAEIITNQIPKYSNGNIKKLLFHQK
T1 sequence (O75469 whole entry): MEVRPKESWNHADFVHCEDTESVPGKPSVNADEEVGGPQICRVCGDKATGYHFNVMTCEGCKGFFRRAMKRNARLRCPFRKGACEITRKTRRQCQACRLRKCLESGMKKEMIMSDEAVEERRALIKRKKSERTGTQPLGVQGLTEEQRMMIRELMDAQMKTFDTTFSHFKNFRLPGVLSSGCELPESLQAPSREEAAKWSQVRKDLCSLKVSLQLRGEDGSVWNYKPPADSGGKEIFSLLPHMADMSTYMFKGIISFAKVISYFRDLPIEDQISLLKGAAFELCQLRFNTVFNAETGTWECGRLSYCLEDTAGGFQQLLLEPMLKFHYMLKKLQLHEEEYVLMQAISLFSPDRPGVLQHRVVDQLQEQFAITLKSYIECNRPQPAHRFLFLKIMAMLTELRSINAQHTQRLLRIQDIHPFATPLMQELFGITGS
Sequence of human Farnesoid X receptor (hFXR) (Q96RI1 whole entry, looked up): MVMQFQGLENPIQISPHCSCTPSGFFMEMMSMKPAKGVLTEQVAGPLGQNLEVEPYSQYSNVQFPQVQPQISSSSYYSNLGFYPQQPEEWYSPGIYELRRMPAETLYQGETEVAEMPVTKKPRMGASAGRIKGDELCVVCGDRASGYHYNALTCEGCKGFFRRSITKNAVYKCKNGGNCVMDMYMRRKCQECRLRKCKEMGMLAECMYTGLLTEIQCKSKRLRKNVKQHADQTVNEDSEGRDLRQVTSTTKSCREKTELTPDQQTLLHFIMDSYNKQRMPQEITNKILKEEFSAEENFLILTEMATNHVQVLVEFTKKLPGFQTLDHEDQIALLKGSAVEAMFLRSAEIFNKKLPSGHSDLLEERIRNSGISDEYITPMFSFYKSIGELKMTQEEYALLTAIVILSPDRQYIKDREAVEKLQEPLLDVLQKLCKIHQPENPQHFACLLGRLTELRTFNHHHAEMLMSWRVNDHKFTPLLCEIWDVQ
Sequence of human retinoid X receptor beta (hRXRβ) (P28702 whole entry, looked up): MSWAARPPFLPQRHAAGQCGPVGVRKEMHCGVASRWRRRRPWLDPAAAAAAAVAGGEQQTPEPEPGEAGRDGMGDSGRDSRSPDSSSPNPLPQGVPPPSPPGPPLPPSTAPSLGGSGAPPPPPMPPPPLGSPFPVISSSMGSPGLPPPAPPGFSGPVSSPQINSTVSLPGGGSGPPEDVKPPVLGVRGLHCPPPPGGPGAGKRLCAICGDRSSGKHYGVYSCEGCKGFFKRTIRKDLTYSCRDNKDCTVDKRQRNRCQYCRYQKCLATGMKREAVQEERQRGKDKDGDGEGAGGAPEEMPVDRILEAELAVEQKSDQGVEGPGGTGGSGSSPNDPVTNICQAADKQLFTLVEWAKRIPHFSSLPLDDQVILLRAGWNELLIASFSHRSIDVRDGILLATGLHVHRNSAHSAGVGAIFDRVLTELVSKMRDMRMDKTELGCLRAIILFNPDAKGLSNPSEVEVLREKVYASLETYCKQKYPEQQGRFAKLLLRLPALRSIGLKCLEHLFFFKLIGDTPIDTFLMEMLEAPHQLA
Sequence of human vitamin D receptor (hVDR) (P11473 whole entry, looked up): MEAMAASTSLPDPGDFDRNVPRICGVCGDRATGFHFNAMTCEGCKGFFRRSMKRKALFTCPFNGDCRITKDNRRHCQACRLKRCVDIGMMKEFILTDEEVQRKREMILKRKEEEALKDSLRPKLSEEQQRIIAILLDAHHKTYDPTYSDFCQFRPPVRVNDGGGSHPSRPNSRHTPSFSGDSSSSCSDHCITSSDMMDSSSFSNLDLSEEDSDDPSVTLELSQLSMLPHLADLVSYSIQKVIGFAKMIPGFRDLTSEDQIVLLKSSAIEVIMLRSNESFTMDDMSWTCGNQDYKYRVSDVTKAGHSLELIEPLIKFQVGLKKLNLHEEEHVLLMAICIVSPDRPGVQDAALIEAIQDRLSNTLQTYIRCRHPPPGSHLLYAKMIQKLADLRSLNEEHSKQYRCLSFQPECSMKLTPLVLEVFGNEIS
Sequence of human Liver X receptor alpha (hLXRα) (Q13133 whole entry, looked up): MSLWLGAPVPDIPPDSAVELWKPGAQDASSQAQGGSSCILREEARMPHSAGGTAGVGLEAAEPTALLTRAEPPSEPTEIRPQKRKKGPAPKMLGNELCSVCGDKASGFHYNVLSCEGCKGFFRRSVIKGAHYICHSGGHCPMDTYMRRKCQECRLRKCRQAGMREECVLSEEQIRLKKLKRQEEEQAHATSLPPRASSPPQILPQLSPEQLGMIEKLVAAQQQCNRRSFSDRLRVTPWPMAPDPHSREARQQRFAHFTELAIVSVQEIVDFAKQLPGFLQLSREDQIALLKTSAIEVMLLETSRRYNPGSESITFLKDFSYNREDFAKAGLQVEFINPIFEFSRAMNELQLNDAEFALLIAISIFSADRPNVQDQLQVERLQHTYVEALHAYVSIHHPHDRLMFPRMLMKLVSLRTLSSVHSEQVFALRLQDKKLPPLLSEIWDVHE
Sequence of human Liver X receptor beta (hLXRβ) (P55055 whole entry, looked up): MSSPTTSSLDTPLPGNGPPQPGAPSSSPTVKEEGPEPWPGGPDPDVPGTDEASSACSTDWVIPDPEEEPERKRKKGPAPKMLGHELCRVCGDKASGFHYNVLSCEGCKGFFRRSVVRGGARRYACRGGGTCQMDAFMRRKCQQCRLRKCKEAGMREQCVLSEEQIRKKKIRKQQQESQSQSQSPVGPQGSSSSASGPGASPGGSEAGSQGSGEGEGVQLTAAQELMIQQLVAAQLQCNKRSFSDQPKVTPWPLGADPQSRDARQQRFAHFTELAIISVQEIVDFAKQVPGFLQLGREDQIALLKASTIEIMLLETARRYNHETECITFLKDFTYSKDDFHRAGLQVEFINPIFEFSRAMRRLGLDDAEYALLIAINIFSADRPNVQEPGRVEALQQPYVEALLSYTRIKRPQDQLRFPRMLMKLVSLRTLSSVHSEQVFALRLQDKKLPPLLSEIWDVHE

- pIC50 [1, 11]: 4.84
Compound: COc1cc(Cl)c(Cl)cc1-n1nnc(S(=O)(=O)c2ccc(C(C)(C)C)cc2)c1C [LC-28, 4-((4-(tert-butyl)phenyl)sulfonyl)-1-(4,5-dichloro-2-methoxyphenyl)-5-methyl-1H-1,2,3-triazole]

- pEC50 (hPXR [3]): 6.00
Compound: COc1ccc(Cl)cc1-n1nnc(S(=O)(=O)c2ccc(C(C)(C)C)cc2)c1N [LC-39, 4-((4-(tert-butyl)phenyl)sulfonyl)-1-(5-chloro-2-methoxyphenyl)-1H-1,2,3-triazol-5-amine]
- pIC50 (HepG2 cells; NA = not active): 4.79

- pEC50 (hPXR [3]): 5.92
Compound: COc1ccc(C)cc1-n1nnc(Nc2ccc(C(C)(C)C)cc2)c1C [LC-44, N-(4-(tert-butyl)phenyl)-1-(2-methoxy-5-methylphenyl)-5-methyl-1H-1,2,3-triazol-4-amine]
- pIC50 (HepG2 cells; NA = not active): 4.65

- pIC50 [1, 11]: 4.89
Compound: COc1ccc(OC)c(-n2nnc(S(=O)(=O)c3ccc(C(C)(C)C)cc3)c2Br)c1 [LC-61, 5-bromo-4-((4-(tert-butyl)phenyl)sulfonyl)-1-(2,5-dimethoxyphenyl)-1H-1,2,3-triazole]

- pIC50 [1, 11]: 4.98
Compound: COc1ccc(Cl)cc1-n1nnc(S(=O)(=O)c2ccc(C(C)(C)C)cc2)c1Br [LC-62, 5-bromo-4-((4-(tert-butyl)phenyl)sulfonyl)-1-(5-chloro-2-methoxyphenyl)-1H-1,2,3-triazole]

- pEC50 (hPXR [3]): 5.21
Compound: COc1ccc(C)cc1-n1nnc(S(=O)(=O)c2ccc(C(C)(C)C)cc2)c1CCl [LC-65, 4-((4-(tert-butyl)phenyl)sulfonyl)-5-(chloromethyl)-1-(2-methoxy-5-methylphenyl)-1H-1,2,3-triazole]
- pIC50 (HepG2 cells; NA = not active): 5.15

- pEC50 ([8]; Ag = compound exhibited agonism, read-out: RXRβ (Ag)): 4.71
Compound: COC(=O)Cc1c(S(=O)(=O)c2ccc(C(C)(C)C)cc2)nnn1-c1cc(C)ccc1OC [LC-66, methyl 2-(4-((4-(tert-butyl)phenyl)sulfonyl)-1-(2-methoxy-5-methylphenyl)-1H-1,2,3-triazol-5-yl)acetate]

- pIC50 [9]: 5.36
Compound: COc1ccc(OC)c(-c2nc(C)c(S(=O)(=O)c3ccc(C(C)(C)C)cc3)[nH]2)c1 [LC-73, 5-((4-(tert-butyl)phenyl)sulfonyl)-2-(2,5-dimethoxyphenyl)-4-methyl-1H-imidazole]

More lines, now with the values behind:

Compound: O=C(Nc1ccccc1)c1cc([N+](=O)[O-])ccc1Cl [GW9662, reference compound]
- pIC50 ([1]; PPARγ antagonistic assay, 100 nM rosiglitazone, read-out: IC50): 6.62

Compound: COc1ccc(C)cc1-n1nnc(S(=O)(=O)c2ccc(C(C)C)cc2)c1C [LC-2]
- pIC50 (hPXR [2]): 6.18

Compound: COc1ccc(Cl)cc1-n1nnc(S(=O)(=O)c2ccc(C(C)C)cc2)c1C [LC-3]
- pIC50 (hPXR [2]): 6.28

Compound: COc1ccc(OC)c(-n2nnc(S(=O)(=O)c3ccc(C(C)C)cc3)c2C)c1 [LC-4]
- pIC50 (hPXR [2]): 6.20

Compound: COc1cc(C#N)c(Cl)cc1-n1nnc(S(=O)(=O)c2ccc(C(C)(C)C)cc2)c1C [LC-36, 4-(4-((4-(tert-butyl)phenyl)sulfonyl)-5-methyl-1H-1,2,3-triazol-1-yl)-2-chloro-5-methoxybenzonitrile]
- pEC50 (hPXR [2]): 5.62

Compound: COc1ccc(Cl)cc1-n1nnc(Nc2ccc(C(C)(C)C)cc2)c1C [LC-45, N-(4-(tert-butyl)phenyl)-1-(5-chloro-2-methoxyphenyl)-5-methyl-1H-1,2,3-triazol-4-amine]
- pIC50 (HepG2 cells; NA = not active): 4.51
- pEC50 (hPXR [3]): 5.96

Compound: COc1ccc(Cl)cc1-n1nnc(N(C)c2ccc(C(C)(C)C)cc2)c1C [LC-48, N-(4-(tert-butyl)phenyl)-1-(5-chloro-2-methoxyphenyl)-N,5-dimethyl-1H-1,2,3-triazol-4-amine]
- pIC50 (HepG2 cells; NA = not active): 4.47
- pEC50 (hPXR [3]): 6.15

Compound: COc1ccc(OC)c(-n2nnc(S(=O)(=O)c3ccc(C(C)(C)C)cc3)c2CCl)c1 [LC-64, 4-((4-(tert-butyl)phenyl)sulfonyl)-5-(chloromethyl)-1-(2,5-dimethoxyphenyl)-1H-1,2,3-triazole]
- pIC50 (HepG2 cells; NA = not active): 5.10
- pIC50 [4]: 5.39
- pIC50 [5]: 5.14
- pIC50 [6]: 5.24
- pIC50 [1, 11]: 5.82
- pIC50 [7]: 5.19
- pIC50 [8]: 5.39
- pIC50 [9]: 5.25
- pIC50 [10]: 5.20

Compound: COc1ccc(OC)c(-c2ncc(S(=O)(=O)c3ccc(C(C)(C)C)cc3)n2C)c1 [LC-70, 5-((4-(tert-butyl)phenyl)sulfonyl)-2-(2,5-dimethoxyphenyl)-1-methyl-1H-imidazole]
- pIC50 (HepG2 cells; NA = not active): 4.82
- pIC50 [6]: 4.79
- pIC50 [1, 11]: 4.55
- pIC50 [9]: 4.69
- pIC50 [10]: 4.84

Compound: COc1ccc(Cl)cc1-c1nc(C)c(S(=O)(=O)c2ccc(C(C)(C)C)cc2)n1C [LC-78, 5-((4-(tert-butyl)phenyl)sulfonyl)-2-(5-chloro-2-methoxyphenyl)-1,4-dimethyl-1H-imidazole]
- pIC50 (HepG2 cells; NA = not active): 4.61
- pEC50 (hPXR [3]): 5.85

Compound: COc1ccc(O)c(-n2nnc(S(=O)(=O)c3ccc(C(C)(C)C)c(O)c3)c2C)c1 [LC-83, 2-(4-((4-(tert-butyl)-3-hydroxyphenyl)sulfonyl)-5-methyl-1H-1,2,3-triazol-1-yl)-4-methoxyphenol]
- pIC50 (HepG2 cells): 4.79
- pEC50 (hPXR [2]): 5.30

Compound: COc1ccc(OC)c(-n2nnc(S(=O)(=O)c3ccc(C(C)(C)C)cc3O)c2C)c1 [LC-84, 5-(tert-butyl)-2-((1-(2,5-dimethoxyphenyl)-5-methyl-1H-1,2,3-triazol-4-yl)sulfonyl)phenol]
- pIC50 (HepG2 cells): 4.68
- pEC50 (hPXR [2]): 5.48

Compound: Cc1c(S(=O)(=O)c2ccc(C(C)(C)C)cc2)nnn1-c1cc(O)ccc1O [LC-85, 2-(4-((4-(tert-butyl)phenyl)sulfonyl)-5-methyl-1H-1,2,3-triazol-1-yl)benzene-1,4-diol]
- pIC50 [1, 11]: 4.89
- pIC50 [8]: 4.51
- pIC50 (hPXR [2]): 5.41

Compound: COc1ccc(O)c(-n2nnc(S(=O)(=O)c3ccc(C(C)(C)C)cc3)c2C)c1 [LC-86, 2-(4-((4-(tert-butyl)phenyl)sulfonyl)-5-methyl-1H-1,2,3-triazol-1-yl)-4-methoxyphenol]
- pIC50 (HepG2 cells): 4.58
- pIC50 [4]: 4.72
- pIC50 [5]: 4.62
- pIC50 [6]: 4.69
- pIC50 [1, 11]: 4.93
- pIC50 [7]: 4.53
- pIC50 [8]: 4.75
- pIC50 [9]: 4.67
- pIC50 [10]: 4.66
- pIC50 (hPXR [2]): 6.74

Compound: COc1ccc(O)cc1-n1nnc(S(=O)(=O)c2ccc(C(C)(C)C)cc2)c1C [LC-87, 3-(4-((4-(tert-butyl)phenyl)sulfonyl)-5-methyl-1H-1,2,3-triazol-1-yl)-4-methoxyphenol]
- pEC50 (hPXR [2]): 4.92

Compound: COc1ccc(OC)c(-n2nnc(S(=O)(=O)c3ccc(C(C)(C)C)c(O)c3)c2C)c1 [LC-88, 2-(tert-butyl)-5-((1-(2,5-dimethoxyphenyl)-5-methyl-1H-1,2,3-triazol-4-yl)sulfonyl)phenol]
- pIC50 (HepG2 cells): 4.89
- pEC50 (hPXR [2]): 5.85
